PubChem BioAssay AID330 (DTP/NCI, 2004)
“And” between values parts separate entries of the source, which are not always exact repeats. Equal values may be shown once. Toxic doses and inconclusive results are not listed. The calls were made as follows: active = survival T/C of 150% or more; inactive = T/C below 125% in these data.

Tested on: P388 leukemia ip, CD2F1 mice, survival T/C
Assay: NCI In Vivo Anticancer Drug Screen. Data for tumor model P388 Leukemia (intraperitoneal) in CD2F1 (CDF1) mice
Conditions: endpoint: median survival time, higher = longer survival
In short: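 Mice carrying the transplanted tumor received test compound or vehicle. Survival was recorded in each group, and the value is the treated-group measurement divided by that of the vehicle-treated control group.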

[1] = dose: 12.5 mg/kg/injection, schedule: Q01DX009 (ip), vehicle: distilled water + Tween-80
[2] = dose: 25.0 mg/kg/injection, schedule: Q01DX009 (ip), vehicle: distilled water + Tween-80
[3] = dose: 50.0 mg/kg/injection, schedule: Q01DX009 (ip), vehicle: distilled water + Tween-80
[4] = dose: 50.0 mg/kg/injection, schedule: Q01DX009 (ip), vehicle: saline with Tween-80
[5] = dose: 100.0 mg/kg/injection, schedule: Q01DX009 (ip), vehicle: saline
[6] = dose: 200.0 mg/kg/injection, schedule: Q01DX009 (ip), vehicle: saline
[7] = dose: 50.0 mg/kg/injection, schedule: Q01DX009 (ip), vehicle: saline
[8] = dose: 60.0 mg/kg/injection, schedule: Q01DX005 (ip), vehicle: Klucel (hydroxypropylcellulose) (HPC)
[9] = dose: 120.0 mg/kg/injection, schedule: Q01DX005 (ip), vehicle: Klucel (hydroxypropylcellulose) (HPC)
[10] = dose: 8.0 mg/kg/injection, schedule: Q01DX009 (ip), vehicle: water
[11] = dose: 16.0 mg/kg/injection, schedule: Q01DX009 (ip), vehicle: water
[12] = dose: 100.0 mg/kg/injection, schedule: Q01DX009 (ip), vehicle: saline with Tween-80
[13] = dose: 200.0 mg/kg/injection, schedule: Q01DX009 (ip), vehicle: saline with Tween-80
[14] = dose: 100.0 mg/kg/injection, schedule: Q04DX002 (ip), vehicle: Klucel (hydroxypropylcellulose) (HPC)
[15] = dose: 200.0 mg/kg/injection, schedule: Q04DX002 (ip), vehicle: Klucel (hydroxypropylcellulose) (HPC)
[16] = dose: 400.0 mg/kg/injection, schedule: Q04DX002 (ip), vehicle: Klucel (hydroxypropylcellulose) (HPC)
[17] = dose: 60.0 mg/kg/injection, schedule: Q01DX005 (ip), vehicle: saline with Tween-80
[18] = dose: 120.0 mg/kg/injection, schedule: Q01DX005 (ip), vehicle: saline with Tween-80
[19] = dose: 240.0 mg/kg/injection, schedule: Q01DX005 (ip), vehicle: saline with Tween-80

Measured: T/C

COc1ccc2c(=O)c(Cc3c[nH]c4ccccc34)coc2c1
inactive: dose: 7.5 mg/kg/injection, schedule: Q01DX005 (ip), vehicle: saline with Tween-80 100 % of control | dose: 15.0 mg/kg/injection, schedule: Q01DX005 (ip), vehicle: saline with Tween-80 93 % of control | dose: 30.0 mg/kg/injection, schedule: Q01DX005 (ip), vehicle: saline with Tween-80 86 % of control

O=C1c2ccccc2C(=O)N1CCCN1CCOCCOCCN(CCCN2C(=O)c3ccccc3C2=O)CCOCC1
inactive: dose: 50.0 mg/kg/injection, schedule: Q01DX005 (ip), vehicle: saline + Tween-80 + alcohol 105 % of control | dose: 100.0 mg/kg/injection, schedule: Q01DX005 (ip), vehicle: saline + Tween-80 + alcohol 97 % of control

O=C(On1nnc2ccccc2c1=O)c1ccccc1
inactive: [1] 100 % of control | [2] 102 % of control | [3] 94 % of control | dose: 100.0 mg/kg/injection, schedule: Q01DX009 (ip), vehicle: distilled water + Tween-80 106 % of control | dose: 200.0 mg/kg/injection, schedule: Q01DX009 (ip), vehicle: distilled water + Tween-80 103 % of control

C(=Nc1ccccc1)C1CCCC[N-]1.C(=Nc1ccccc1)C1CCCC[N-]1.[Cu+2].[O-][Cl+3]([O-])([O-])O (stereo unspecified)
inactive: dose: 4.5 mg/kg/injection, schedule: Q01DX009 (ip), vehicle: saline with Tween-80 90 % of control | dose: 9.0 mg/kg/injection, schedule: Q01DX009 (ip), vehicle: saline with Tween-80 97 % of control | dose: 18.0 mg/kg/injection, schedule: Q01DX009 (ip), vehicle: saline with Tween-80 97 % of control | dose: 18.75 mg/kg/injection, schedule: Q01DX009 (ip), vehicle: saline with Tween-80 97 % of control | [4] 96 % of control

COc1ccc(C(O)(c2ccccc2)c2ccccc2)c(OC)c1
inactive: dose: 50.0 mg/kg/injection, schedule: Q01DX009 (ip), vehicle: Klucel (hydroxypropylcellulose) (HPC) 98 % of control | dose: 100.0 mg/kg/injection, schedule: Q01DX009 (ip), vehicle: Klucel (hydroxypropylcellulose) (HPC) 93 % of control | dose: 200.0 mg/kg/injection, schedule: Q01DX009 (ip), vehicle: Klucel (hydroxypropylcellulose) (HPC) 95 % of control

CC(=O)C1(C)CC=CCC1C(=O)O (stereo unspecified)
inactive: [5] 100 % of control | [6] 100 % of control | dose: 400.0 mg/kg/injection, schedule: Q01DX009 (ip), vehicle: saline 100 % of control

c1ccc(C2CO2)cc1 (stereo unspecified)
inactive: dose: 100.0 mg/kg/injection, schedule: Q01DX001 (ip), vehicle: Klucel (hydroxypropylcellulose) (HPC) 106 % of control | dose: 200.0 mg/kg/injection, schedule: Q01DX001 (ip), vehicle: Klucel (hydroxypropylcellulose) (HPC) 100 % of control | dose: 400.0 mg/kg/injection, schedule: Q01DX001 (ip), vehicle: Klucel (hydroxypropylcellulose) (HPC) 102 % of control

CCCCCCCCCCCCCCCC[N+]1(CC)CCSCC1
inactive: [7] 100 % of control | [5] 96 % of control | [6] 100 % of control

O=C1C(N=Nc2ccc(Br)cc2)Sc2nc3ccccc3n21 (stereo unspecified)
inactive: [8] 89 % of control | [9] 89 % of control

CCOC(=O)c1nc(C)[nH]c(=O)c1C
inactive: [10] 100 % of control | [11] 95 % of control | dose: 32.0 mg/kg/injection, schedule: Q01DX009 (ip), vehicle: water 100 % of control | dose: 64.0 mg/kg/injection, schedule: Q01DX009 (ip), vehicle: water 100 % of control | dose: 128.0 mg/kg/injection, schedule: Q01DX009 (ip), vehicle: water 98 % of control

O=C(Oc1c(Br)c(N(C(=O)c2ccccc2)c2ccccc2)c(OC(=O)c2ccccc2)c(Br)c1N(C(=O)c1ccccc1)c1ccccc1)c1ccccc1
inactive: dose: 50.0 mg/kg/injection, schedule: Q01DX005 (ip), vehicle: saline with Tween-80 91 % of control | dose: 100.0 mg/kg/injection, schedule: Q01DX005 (ip), vehicle: saline with Tween-80 95 % of control | dose: 200.0 mg/kg/injection, schedule: Q01DX005 (ip), vehicle: saline with Tween-80 89 % of control

O=S(=O)(CCc1ccccc1)c1nc2ccccc2s1
inactive: [8] 99 % of control | [9] 100 % of control | dose: 240.0 mg/kg/injection, schedule: Q01DX005 (ip), vehicle: Klucel (hydroxypropylcellulose) (HPC) 101 % of control

CCN(CC)CC(COC)Oc1cc(C)ccc1C(C)C (stereo unspecified)
inactive: dose: 50.0 mg/kg/injection, schedule: Q04DX003 (ip), vehicle: saline with Tween-80 104 % of control | dose: 100.0 mg/kg/injection, schedule: Q04DX003 (ip), vehicle: saline with Tween-80 95 % of control | dose: 200.0 mg/kg/injection, schedule: Q04DX003 (ip), vehicle: saline with Tween-80 109 % of control

CN(C)[C@@H]1C(=O)C(C(N)=O)=C(O)[C@@]2(O)C(=O)C3=C(O)c4c(O)cccc4C[C@H]3C[C@@H]12
inactive: dose: 7.5 mg/kg/injection, schedule: Q01DX010 (ip), vehicle: saline 115 % of control | dose: 15.0 mg/kg/injection, schedule: Q01DX010 (ip), vehicle: saline 120 % of control

CCCCCCCCSP(SCCCCCCCC)SCCCCCCCC
inactive: [4] 113 % of control | [12] 106 % of control | [5] 96 % of control | [13] 103 % of control | [6] 102 % of control and 91 % of control

Cc1cccc(=O)[n-]1.Cc1cccc(=O)[n-]1.Cc1cccc(=O)[n-]1.Cc1cccc(=O)[n-]1.[Rh+2].[Rh+2]
inactive: [14] 103 % of control | [15] 102 % of control | [16] 100 % of control

CCOC(=O)NC(C)(C)CN(C(=O)OCC)C(C)(C)CO
inactive: dose: 50.0 mg/kg/injection, schedule: Q04DX003 (ip), vehicle: saline 100 % of control | dose: 100.0 mg/kg/injection, schedule: Q04DX003 (ip), vehicle: saline 109 % of control | dose: 200.0 mg/kg/injection, schedule: Q04DX003 (ip), vehicle: saline 109 % of control

COc1cc2ccc3c4c(OC)c(OC)c(OC)cc4c[n+](C)c3c2cc1OC
inactive: dose: 2.0 mg/kg/injection, schedule: Q01DX009 (ip), vehicle: water 111 % of control | dose: 4.0 mg/kg/injection, schedule: Q01DX009 (ip), vehicle: water 113 % of control | [10] 110 % of control | [11] 118 % of control

Clc1ccccc1C(=Nc1ccccc1)C(=Nc1ccccc1)c1ccccc1Cl
inactive: [14] 99 % of control | [15] 102 % of control | [16] 96 % of control

CCOP(=O)(CC1OCCCO1)OCC
inactive: [7] 98 % of control | [5] 100 % of control | [6] 102 % of control

CC(C)(C)OC(=O)C(Cc1cnc2nc(N)nc(N)c2n1)C(=O)OC(C)(C)C
inactive: dose: 3.13 mg/kg/injection, schedule: Q01DX009 (ip), vehicle: distilled water + Tween-80 103 % of control | dose: 6.25 mg/kg/injection, schedule: Q01DX009 (ip), vehicle: distilled water + Tween-80 98 % of control | [1] 95 % of control | [2] 95 % of control | [3] 93 % of control

O=C(O)/C=C\c1c[nH]c2ccccc12
inactive: [17] 94 % of control | [18] 94 % of control | [19] 88 % of control

NNc1nc(N2CCCCC2)ns1
inactive: dose: 2.5 mg/kg/injection, schedule: Q01DX009 (ip), vehicle: saline with Tween-80 98 % of control | dose: 5.0 mg/kg/injection, schedule: Q01DX009 (ip), vehicle: saline with Tween-80 110 % of control | dose: 10.0 mg/kg/injection, schedule: Q01DX009 (ip), vehicle: saline with Tween-80 120 % of control

O=CNNC(=S)Nc1ccccc1
inactive: [4] 113 % of control | [12] 109 % of control | [13] 108 % of control

O=C1c2ccccc2C(=O)N1Cc1ccc(Cl)cc1[N+](=O)[O-]
inactive: dose: 50.0 mg/kg/injection, schedule: Q01DX005 (ip), vehicle: Klucel (hydroxypropylcellulose) (HPC) 103 % of control | dose: 100.0 mg/kg/injection, schedule: Q01DX005 (ip), vehicle: Klucel (hydroxypropylcellulose) (HPC) 109 % of control | dose: 200.0 mg/kg/injection, schedule: Q01DX005 (ip), vehicle: Klucel (hydroxypropylcellulose) (HPC) 98 % of control

O=C1CCC2C(C3SCCCS3)=CCN12 (stereo unspecified)
inactive: [17] 97 % of control | [18] 95 % of control | [19] 101 % of control
